Measurements published in patent publication US8124788B2, “Spirocyclic cyclohexane compounds with analgesic activity” (Gruenenthal GmbH, priority 2006, dated 2012).

Biological target: T1, human μ opiate receptor (Homo sapiens, UniProt P35372)
T1 construct: purchased PerkinElmer Life Sciences, Zaventem, Belgium RB-HOM; host or cells: CHO-K1 cells (recombinant expression)
Assay: Affinity for the human μ opiate receptor ([3H]-naloxone displacement, CHO-K1 membrane preparation, SPA)
Assay type: binding
Conditions: compounds prepared via automated synthesis, single measurements at a test concentration of 1 μM
Description: The receptor affinity for the human μ opiate receptor is determined in a homogeneous set-up in microtitre plates. For this purpose, dilution series of the substances to be tested are incubated with a receptor membrane preparation (15-40 μg of protein/250 μl of incubation batch) of CHO-K1 cells which express the human μ opiate receptor (RB-HOM receptor membrane preparation from PerkinElmer Life Sciences, Zaventem, Belgium) in the presence of 1 nmol/l of the radioactive ligand [^3H]-naloxone (NET719, PerkinElmer Life Sciences, Zaventem, Belgium) and 1 mg of WGA-SPA-Beads (wheat germ agglutinin SPA beads from Amersham/Pharmacia, Freiburg, Germany) in a total volume of 250 μl for 90 minutes at room temperature. 50 mmol/l of Tris-HCl supplemented with 0.06% of bovine serum albumin are used as the incubation buffer. 100 μmol/l of naloxone are additionally added for determination of the non-specific binding. After the end of the ninety-minute incubation time, the microtitre plates are centrifuged for 20 minutes at 1,000 g and the radioactivity is measured in a β-counter (Microbeta-Trilum, PerkinElmer Wallac, Freiburg, Germany). The percentage displacement of the radioactive ligand from its binding to the human μ opiate receptor is determined at a concentration of the test substances of 1 μmol/l and stated as the percentage inhibition of the specific binding. Starting from the percentage displacement by various concentrations of the test substances, IC50 inhibitory concentrations which cause a 50 percent displacement of the radioactive ligand are calculated. By conversion by means of the Cheng-Prusoff relationship, Ki values for the test substances are obtained.

T1 sequence (P35372 whole entry): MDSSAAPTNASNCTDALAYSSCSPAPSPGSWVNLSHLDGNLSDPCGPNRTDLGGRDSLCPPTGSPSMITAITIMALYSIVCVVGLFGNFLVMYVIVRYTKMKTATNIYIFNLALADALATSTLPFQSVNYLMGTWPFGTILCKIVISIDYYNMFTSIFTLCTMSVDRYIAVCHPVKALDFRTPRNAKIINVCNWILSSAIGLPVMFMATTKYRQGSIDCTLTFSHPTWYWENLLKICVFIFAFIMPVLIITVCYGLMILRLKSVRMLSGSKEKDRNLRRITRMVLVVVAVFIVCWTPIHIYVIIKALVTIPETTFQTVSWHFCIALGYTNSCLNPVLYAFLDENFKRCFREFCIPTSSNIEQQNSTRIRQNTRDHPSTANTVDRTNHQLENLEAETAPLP

| SMILES | μ opioid receptor [1 μmol], % inhibition | μ opioid receptor [1 μmol], % inhibition (1 µM) |
| --- | --- | --- |
| CN(C)C(c1ccccc1)C1CCC2(CC1)c1[nH]c3ccccc3c1CCN2C(=O)COc1ccc(Cl)cc1 (centres unmarked) [Compound 60, 2-[(4-chlorophenoxy)acetyl]-{1,1-[3-(dimethylamino-phenylmethyl)-pentamethylene]-3,4-dihydro-1H-2,9-diazafluorene}] | 26% | – |
| CC(=Cc1ccccc1)C(=O)N1CCc2c([nH]c3ccccc23)C12CCC(C(c1ccc(F)cc1)N(C)C)CC2 (centres unmarked) [Compound 64, 1-{1,1-[3-(dimethylamino-(4-fluorophenyl)methyl) -pentamethylene]-3,4-dihydro-1H-2,9-diazafluoren-2-yl}-2-methyl-3-phenylprop-2-en-1-one] | 15% | – |
| COCC(=O)N1CCc2c([nH]c3ccccc23)C12CCC(C(c1cccc(F)c1)N(C)C)CC2 (centres unmarked) [Compound 92, 2-(methoxyacetyl)-{1,1-[3-(dimethylamino-(3-fluorophenyl)methyl)-pentamethylene]-3,4-dihydro-1H-2,9-diazafluorene}] | 22% | – |
| CCC(=O)N1CCc2c([nH]c3ccccc23)C12CCC(C(c1ccc(Cl)cc1)N(C)C)CC2 (centres unmarked) [Compound 120, 2-propionyl-{1,1-[3-(dimethylamino-(4-chlorophenyl)methyl)-pentamethylene]-3,4-dihydro-1H-2,9-diazafluorene}] | 29% | – |
| CC(Oc1ccccc1)C(=O)N1CCc2c([nH]c3ccccc23)C12CCC(C(c1ccccc1)N(C)C)CC2 (centres unmarked) [Compound 137, 2-(2-phenoxypropanoyl)-{1,1-[3-(dimethylamino-phenylmethyl)-pentamethylene]-3,4-dihydro-1H-2,9-diazafluorene}] | 68% | – |
| CC(=Cc1ccccc1)C(=O)N1CCc2c([nH]c3ccccc23)C12CCC(C(c1cccc(F)c1)N(C)C)CC2 (centres unmarked) [Compound 68, 1-{1,1-[3-(dimethylamino-(3-fluorophenyl)methyl) -pentamethylene]-3,4-dihydro-1H-2,9-diazafluoren-2-yl}-2-methyl-3-phenylprop-2-en-1-one] | 19% | – |
| CN(C)C(c1ccc(Cl)cc1)C1CCC2(CC1)c1[nH]c3ccccc3c1CCN2C(=O)CCc1ccccc1 (centres unmarked) [Compound 131, 2-(3-phenylpropanoyl)-{1,1-[3-(dimethylamino-(4-chlorophenyl)methyl)-pentamethylene]-3,4-dihydro-1H-2,9-diazafluorene}] | – | 51% |
| CN(C)C(c1cccc(F)c1)C1CCC2(CC1)c1[nH]c3ccccc3c1CCN2C(=O)COCc1ccccc1 (centres unmarked) [Compound 94, 2-(benzyloxyacetyl)-{1,1-[3-(dimethylamino-(3-fluorophenyl)methyl)-pentamethylene]-3,4-dihydro-1H-2,9-diazafluorene}] | 32% | – |
| CN(C)C(c1ccccc1)C1CCC2(CC1)c1[nH]c3ccccc3c1CCN2C(=O)C=Cc1ccccc1 (centres unmarked) [Compound 80, 1-{1,1-[3-(dimethylamino-phenylmethyl)-pentamethylene]-3,4-dihydro-1H-2,9-diazafluoren-2-yl}-3-phenylprop-2-en-1-one] | 41% | – |
| CN(C)C(c1ccccc1)C1CCC2(CC1)c1[nH]c3ccccc3c1CCN2C(=O)C=Cc1ccccc1Cl (centres unmarked) [Compound 61, 1-{1,1-[3-(dimethylamino-phenylmethyl)-pentamethylene]-3,4-dihydro-1H-2,9-diazafluoren-2-yl}-3-(2-chlorophenyl)prop-2-en-1-one] | 6% | – |
| CN(C)C(c1cccc(F)c1)C1CCC2(CC1)c1[nH]c3ccccc3c1CCN2C(=O)C=Cc1ccccc1Cl (centres unmarked) [Compound 72, 1-{1,1-[3-(dimethylamino-(3-fluorophenyl)methyl) -pentamethylene]-3,4-dihydro-1H-2,9-diazafluoren-2-yl}-3-(2-chlorophenyl)prop-2-en-1-one] | 24% | – |
| COc1ccc(CC(=O)N2CCc3c([nH]c4ccccc34)C23CCC(C(c2ccc(F)cc2)N(C)C)CC3)cc1OC (centres unmarked) [Compound 63, 2-[(3,4-dimethoxyphenyl)acetyl]-{1,1-[3-(dimethylamino-(4-fluorophenyl)methyl)-pentamethylene]-3,4-dihydro-1H-2,9-diazafluorene}] | 29% | – |
| CN(C)C(c1ccc(Cl)cc1)C1CCC2(CC1)c1[nH]c3ccccc3c1CCN2C(=O)C1CCCCC1 (centres unmarked) [Compound 76, 2-(cyclohexylcarbonyl)-{1,1-[3-(dimethylamino-(4-chlorophenyl)methyl)-pentamethylene]-3,4-dihydro-1H-2,9-diazafluorene}] | 15% | – |
| CCC(=O)N1CCc2c([nH]c3ccccc23)C12CCC(C(c1cccc(F)c1)N(C)C)CC2 (centres unmarked) [Compound 113, 2-propionyl-{1,1-[3-(dimethylamino-(3-fluorophenyl)methyl)-pentamethylene]-3,4-dihydro-1H-2,9-diazafluorene}] | 13% | – |
| CN(C)C(c1ccc(Cl)cc1)C1CCC2(CC1)c1[nH]c3ccccc3c1CCN2C(=O)Cc1cccs1 (centres unmarked) [Compound 98, 2-(2-thienylacetyl)-{1,1-[3-(dimethylamino-(4-chlorophenyl)methyl)-pentamethylene]-3,4-dihydro-1H-2,9-diazafluorene}] | 21% | – |
| Cc1ccc2sc(C(=O)N3CCc4c([nH]c5ccccc45)C34CCC(C(c3cccc(F)c3)N(C)C)CC4)cc2c1 (centres unmarked) [Compound 128, 2-[5-methylbenzothien-2-ylcarbonyl]-{1,1-[3-(dimethylamino-(3-fluorophenyl)methyl)-pentamethylene]-3,4-dihydro-1H-2,9-diazafluorene}] | 16% | – |
| CC(C)CC(=O)N1CCc2c([nH]c3ccccc23)C12CCC(C(c1ccc(Cl)cc1)N(C)C)CC2 (centres unmarked) [Compound 134, 1-{1,1-[3-(dimethylamino-(4-chlorophenyl)methyl) -pentamethylene]-3,4-dihydro-1H-2,9-diazafluoren-2-yl}-3-methylbutan-1-one] | 47% | – |
| CN(C)C(c1ccc(Cl)cc1)C1CCC2(CC1)c1[nH]c3ccccc3c1CCN2C(=O)CC(C)(C)C (centres unmarked) [Compound 73, 1-{1,1-[3-(dimethylamino-(4-chlorophenyl)methyl) -pentamethylene]-3,4-dihydro-1H-2,9-diazafluoren-2-yl}-3,3-dimethylbutan-1-one] | 24% | – |
| CN(C)C(c1ccc(Cl)cc1)C1CCC2(CC1)c1[nH]c3ccccc3c1CCN2C(=O)COCc1ccccc1 (centres unmarked) [Compound 99, 2-(benzyloxyacetyl)-{1,1-[3-(dimethylamino-(4-chlorophenyl)methyl)-pentamethylene]-3,4-dihydro-1H-2,9-diazafluorene}] | 35% | – |
| CN(C)C(c1cccc(F)c1)C1CCC2(CC1)c1[nH]c3ccccc3c1CCN2C(=O)Cc1cccs1 (centres unmarked) [Compound 93, 2-(2-thienylacetyl)-{1,1-[3-(dimethylamino-(3-fluorophenyl)methyl)-pentamethylene]-3,4-dihydro-1H-2,9-diazafluorene}] | 19% | – |
| CN(C)C(c1ccccc1)C1CCC2(CC1)c1[nH]c3ccccc3c1CCN2C(=O)C1CCCC1 (centres unmarked) [Compound 125, 2-cyclopentylcarbonyl-{1,1-[3-(dimethylamino-phenylmethyl)-pentamethylene]-3,4-dihydro-1H-2,9-diazafluorene}] | 29% | – |
| COCC(=O)N1CCc2c([nH]c3ccccc23)C12CCC(C(c1ccccc1)N(C)C)CC2 (centres unmarked) [Compound 81, 2-(methoxyacetyl)-{1,1-[3-(dimethylamino-phenylmethyl) -pentamethylene]-3,4-dihydro-1H-2,9-diazafluorene}] | 0% | – |
| CN(C)C(c1ccc(Cl)cc1)C1CCC2(CC1)c1[nH]c3ccccc3c1CCN2C(=O)CCc1ccccc1 (centres unmarked) [Compound 135, (3-phenylpropanoyl)-1-{1,1-[3-(dimethylamino-(4-chlorophenyl)methyl)-pentamethylene]-3,4-dihydro-1H-2,9-diazafluorene}] | – | 38% |
| CC(Oc1ccccc1)C(=O)N1CCc2c([nH]c3ccccc23)C12CCC(C(c1cccc(F)c1)N(C)C)CC2 (centres unmarked) [Compound 127, 2-(2-phenoxypropanoyl)-{1,1-[3-(dimethylamino-(3-fluorophenyl)methyl)-pentamethylene]-3,4-dihydro-1H-2,9-diazafluorene}] | 55% | – |
| CCCCC(CC)C(=O)N1CCc2c([nH]c3ccccc23)C12CCC(C(c1ccc(Cl)cc1)N(C)C)CC2 (centres unmarked) [Compound 118, 2-(2-ethylhexanoyl)-{1,1-[3-(dimethylamino-(4-chlorophenyl)methyl)-pentamethylene]-3,4-dihydro-1H-2,9-diazafluorene}] | 35% | – |
| CCC(CC)C(=O)N1CCc2c([nH]c3ccccc23)C12CCC(C(c1ccc(F)cc1)N(C)C)CC2 (centres unmarked) [Compound 139, 1-{1,1-[3-(dimethylamino-(4-fluorophenyl)methyl) -pentamethylene]-3,4-dihydro-1H-2,9-diazafluoren-2-yl}-2-ethylbutan-1-one] | 25% | – |
